The target in one series is AChE (Homo sapiens, UniProt P22303). Nature of the series: biochemical. In kind it is biochemical. The settings on record: for increase of AChE inhibition relative to the unsubstituted nitropyridazine: vs JWS.
Another series addresses BuChE (Homo sapiens, UniProt P06276). The experiment in a line: biochemical.
Series [1] in a line: Chemical decomposition on storage. In kind it is physicochemical. The settings on record: estimated, after 6 months; nitro replaced by hydroxyl.
The target in another series is T1, M2 receptor (Homo sapiens, UniProt P08172).
T1 sequence (P08172 1-466): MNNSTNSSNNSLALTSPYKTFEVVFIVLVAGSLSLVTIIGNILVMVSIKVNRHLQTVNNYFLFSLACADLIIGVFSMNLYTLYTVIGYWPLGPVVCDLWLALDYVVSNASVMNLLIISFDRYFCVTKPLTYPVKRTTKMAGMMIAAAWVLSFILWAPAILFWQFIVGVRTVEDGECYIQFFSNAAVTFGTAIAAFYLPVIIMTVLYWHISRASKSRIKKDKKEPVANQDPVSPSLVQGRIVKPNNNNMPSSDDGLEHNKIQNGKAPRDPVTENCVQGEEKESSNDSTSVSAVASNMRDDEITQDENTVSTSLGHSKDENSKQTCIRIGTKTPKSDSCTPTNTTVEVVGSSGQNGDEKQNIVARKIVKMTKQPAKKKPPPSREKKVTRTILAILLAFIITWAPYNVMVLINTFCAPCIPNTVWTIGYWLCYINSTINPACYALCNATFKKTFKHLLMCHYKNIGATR
The conditions noted are these: read-out: M2 receptors IC50; previous studies; cited from earlier work.

BuChE, sequence (P06276 29-602): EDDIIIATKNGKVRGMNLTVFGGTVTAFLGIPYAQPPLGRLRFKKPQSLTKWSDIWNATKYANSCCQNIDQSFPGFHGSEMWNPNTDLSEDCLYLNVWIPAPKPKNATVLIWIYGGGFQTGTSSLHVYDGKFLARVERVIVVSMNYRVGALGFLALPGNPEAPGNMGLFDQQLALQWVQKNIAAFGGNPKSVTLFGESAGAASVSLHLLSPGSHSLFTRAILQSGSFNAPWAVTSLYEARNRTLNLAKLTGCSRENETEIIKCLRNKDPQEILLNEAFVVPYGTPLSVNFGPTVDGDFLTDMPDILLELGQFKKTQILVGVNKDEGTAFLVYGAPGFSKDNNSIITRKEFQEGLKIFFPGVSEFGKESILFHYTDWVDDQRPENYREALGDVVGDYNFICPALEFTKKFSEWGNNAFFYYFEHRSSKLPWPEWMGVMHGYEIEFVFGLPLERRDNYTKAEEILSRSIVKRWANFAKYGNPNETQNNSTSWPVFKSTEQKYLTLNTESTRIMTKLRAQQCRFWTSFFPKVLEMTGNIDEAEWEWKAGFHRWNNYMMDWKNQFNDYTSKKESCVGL
AChE, sequence (P22303 32-614): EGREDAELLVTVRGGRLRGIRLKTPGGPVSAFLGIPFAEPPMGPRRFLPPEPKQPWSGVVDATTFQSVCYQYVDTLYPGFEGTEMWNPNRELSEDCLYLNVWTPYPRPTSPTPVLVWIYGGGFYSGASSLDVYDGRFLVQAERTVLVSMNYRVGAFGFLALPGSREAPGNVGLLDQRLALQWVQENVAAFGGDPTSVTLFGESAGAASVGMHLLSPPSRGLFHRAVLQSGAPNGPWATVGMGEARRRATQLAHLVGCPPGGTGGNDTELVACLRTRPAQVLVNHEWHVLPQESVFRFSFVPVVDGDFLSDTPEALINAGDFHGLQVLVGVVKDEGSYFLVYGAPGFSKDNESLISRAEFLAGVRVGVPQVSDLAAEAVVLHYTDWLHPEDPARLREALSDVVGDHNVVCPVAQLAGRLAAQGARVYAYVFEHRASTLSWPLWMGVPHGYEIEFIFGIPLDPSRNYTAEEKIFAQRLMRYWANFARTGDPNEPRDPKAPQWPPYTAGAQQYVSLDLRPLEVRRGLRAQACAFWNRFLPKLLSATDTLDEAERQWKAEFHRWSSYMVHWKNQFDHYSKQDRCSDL

In general, IC50 refers to the point on the concentration scale where inhibition reaches its midpoint. As to `CN(C)Cc1ccc(CSCCNc2nc(N)no2)o1` [Compound 17], the IC50 against AChE and against BuChE was > 50 µM each time. As for `Cc1cccc(Nc2ccccc2C(=O)NCCSCc2ccc(CN(C)C)o2)c1C` [Compound 25], the half-maximal inhibitory concentration (IC50) against AChE and at BuChE was > 50 µM throughout. As to `CN(C)Cc1ccc(CSCCN2C(=O)c3ccc([N+](=O)[O-])cc3C2=O)o1` [Compound 31], the IC50 on BuChE is > 50 µM. For `Cc1c(-c2ccccc2)nnc(NCCSCc2ccc(CN(C)C)o2)c1[N+](=O)[O-]` [Compound 10], the “increase of AChE inhibition relative to the unsubstituted nitropyridazine” value on AChE is given as ~3 fold. For `CN(C)Cc1ccc(CSCCNc2ccc(Cl)nn2)o1` [Compound 16], the IC50 on BuChE was > 50 µM. Take `CN(C)Cc1ccc(CSCCNc2nc(N)n[nH]2)o1` [Compound 18]: the IC50 against AChE and against BuChE was > 50 µM in each case. Consider `CN(C)Cc1ccc(CSCCN2C(=O)CCC2=O)o1` [Compound 27], for which, at BuChE, the IC50 is > 50 µM. For the molecule `CN(C)Cc1ccc(CSCCN2C(=O)c3cccc4cc([N+](=O)[O-])cc(c34)C2=O)o1` [Compound 33], the “fold less active than donepezil (AChE)” value on AChE (vs donepezil IC50 = 0.050 µM) amounted to 3 fold. For the molecule `CC1CC(=O)N(CCSCc2ccc(CN(C)C)o2)C1=O` (centres unmarked) [Compound 28], the IC50 at BuChE was > 50 µM. Regarding `CS/C(=N\S(=O)(=O)c1ccc(C)cc1)NCCSCc1ccc(CN(C)C)o1` [Compound 22], the 50% inhibitory concentration (IC50) against AChE and against BuChE was > 50 µM in each case. For `Cc1ccc(S(=O)(=O)NCCSCc2ccc(CN(C)C)o2)cc1` [Compound 23], on AChE, the IC50 is > 50 µM. Take `CN(C)Cc1ccc(CSCCNc2nnccc2[N+](=O)[O-])o1` [JWS, N-(2-(((5-((dimethylamino)methyl)furan-2-yl)methyl)thio)ethyl)-4-nitropyridazin-3-amine]: the chemical decomposition result in series [1] is recorded as “about 10%”. The IC50 on M2 receptor was 0.06 µM. Turning to `CN(C)Cc1ccc(CSCCNC(=O)c2ccccc2-c2ccccc2C(=O)O)o1` [Compound 24], the IC50 against AChE and against BuChE was > 50 µM in each case. `CN(C)Cc1ccc(CSCCNc2nnc(-c3ccccc3)c(-c3ccccc3)c2[N+](=O)[O-])o1` [Compound 12]: at AChE, the “increase of AChE inhibition relative to the unsubstituted nitropyridazine” value was ~3 fold.

Source of the values: publication PMC5185470 (Bioorganic & medicinal chemistry letters, 2016).
